Results: ChEMBL document CHEMBL3734692, “Design and synthesis of 2-oxindole based multi-targeted inhibitors of PDK1/Akt signaling pathway for the treatment of glioblastoma multiforme” (Eur J Med Chem, 2015)
The source made the active and inactive calls. No cut-off for these calls is given here.

What was measured:
ANGM-CSS [1] = assay: Induction of human GSC differentiation derived from ANGM-CSS cells assessed as up regulation of olig mRNA expression at 1 uM after 7 days by RT-PCR analysis; format: functional, cell-based
[2] = target: Dual specificity protein kinase CLK1 (Homo sapiens) (UniProt P49759); assay: Inhibition of CLK1 (unknown origin) at 1 uM by selectscreen kinase profiling assay in presence of ATP
[3] = target: T1, Glycogen synthase kinase-3 alpha (Homo sapiens, UniProt P49840); assay: Inhibition of GSK3alpha (unknown origin) in presence of 10 uM ATP incubated for 1 hr by Z'Lyte assay
Target sequence in this assay (P49840 whole entry): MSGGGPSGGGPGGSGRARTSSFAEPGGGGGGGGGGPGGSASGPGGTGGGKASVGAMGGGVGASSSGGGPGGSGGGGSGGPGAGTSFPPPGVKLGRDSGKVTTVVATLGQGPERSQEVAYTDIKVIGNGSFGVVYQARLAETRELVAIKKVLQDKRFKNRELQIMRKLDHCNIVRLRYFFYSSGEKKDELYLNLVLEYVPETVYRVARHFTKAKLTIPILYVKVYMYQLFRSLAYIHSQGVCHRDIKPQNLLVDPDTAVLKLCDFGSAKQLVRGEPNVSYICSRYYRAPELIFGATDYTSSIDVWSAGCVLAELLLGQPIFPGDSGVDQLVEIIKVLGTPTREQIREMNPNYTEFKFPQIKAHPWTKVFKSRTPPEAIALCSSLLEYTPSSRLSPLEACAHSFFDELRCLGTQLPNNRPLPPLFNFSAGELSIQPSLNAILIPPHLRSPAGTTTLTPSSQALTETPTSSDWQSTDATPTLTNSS

[4] = target: Casein kinase II subunit alpha' (Homo sapiens) (UniProt P19784); assay: Inhibition of CK2alpha2 (unknown origin) at 1 uM by selectscreen kinase profiling assay in presence of ATP
[5] = Antiproliferative activity against human ANGM-CSS cells assessed as inhibition of cell growth after 120 hrs by WST1 assay; format: functional
[6] = target: Calcium/calmodulin-dependent protein kinase type II subunit alpha (Homo sapiens) (UniProt Q9UQM7); assay: Inhibition of CAMK2alpha (unknown origin) at 1 uM by selectscreen kinase profiling assay in presence of ATP
ANGM-CSS [7] = assay: Induction of human GSC differentiation derived from ANGM-CSS cells assessed as down regulation of nestin mRNA expression at 1 uM after 7 days by RT-PCR analysis; format: functional, cell-based
[8] = Induction of apoptosis in human ANGM-CSS cells assessed as dead cells at 1 uM after 7 days by annexin V-FITC/7-AAD dual staining based cell analysis (reference value: 2.28%); format: functional
[9] = target: Serine/threonine-protein kinase mTOR (Homo sapiens) (UniProt P42345); assay: Inhibition of mTOR (unknown origin) at 1 uM by selectscreen kinase profiling assay in presence of ATP
[10] = target: CDK9/cyclin T1 (Homo sapiens) (UniProt O60563+P50750); assay: Inhibition of CDK9/cyclin T1 (unknown origin) at 1 uM by selectscreen kinase profiling assay in presence of ATP; format: protein-complex assay
[11] = target: Tyrosine-protein kinase ITK/TSK (Homo sapiens) (UniProt Q08881); assay: Inhibition of ITK (unknown origin) at 1 uM by selectscreen kinase profiling assay in presence of ATP
[12] = target: Glycogen synthase kinase-3 beta (Homo sapiens, UniProt P49841); assay: Inhibition of GSK3beta (unknown origin) in presence of 10 uM ATP incubated for 1 hr by Z'Lyte assay
[13] = target: Serine/threonine-protein kinase Chk1 (Homo sapiens, UniProt O14757); assay: Inhibition of CHK1 (unknown origin) in presence of 10 uM ATP incubated for 1 hr by Z'Lyte assay
[14] = target: Inhibitor of nuclear factor kappa-B kinase subunit alpha (Homo sapiens) (UniProt O15111); assay: Inhibition of IKKalpha (unknown origin) at 1 uM by selectscreen kinase profiling assay in presence of ATP
[15] = target: Dual specificity mitogen-activated protein kinase kinase 2 (Homo sapiens) (UniProt P36507); assay: Inhibition of MEK2 (unknown origin) at 1 uM by selectscreen kinase profiling assay in presence of ATP
[16] = target: Mitogen-activated protein kinase 1 (Homo sapiens) (UniProt P28482); assay: Inhibition of ERK2 (unknown origin) at 1 uM by selectscreen kinase profiling assay in presence of ATP
[17] = target: Tyrosine-protein kinase ABL1 (Homo sapiens) (UniProt P00519); assay: Inhibition of ABL1 (unknown origin) at 1 uM by selectscreen kinase profiling assay in presence of ATP
[18] = target: Protein kinase C zeta type (Homo sapiens) (UniProt Q05513); assay: Inhibition of PKCzeta (unknown origin) at 1 uM by selectscreen kinase profiling assay in presence of ATP
ANGM-CSS [19] = assay: Induction of human GSC differentiation derived from ANGM-CSS cells assessed as up regulation of MAP2 mRNA expression at 1 uM after 7 days by RT-PCR analysis; format: functional, cell-based
[20] = target: Serine/threonine-protein kinase B-raf (Homo sapiens) (UniProt P15056); assay: Inhibition of BRAF (unknown origin) at 1 uM by selectscreen kinase profiling assay in presence of ATP
[21] = target: Tyrosine-protein kinase Lck (Homo sapiens) (UniProt P06239); assay: Inhibition of LCK (unknown origin) at 1 uM by selectscreen kinase profiling assay in presence of ATP
[22] = target: Ribosomal protein S6 kinase beta-1 (Homo sapiens) (UniProt P23443); assay: Inhibition of RPS6KB1 (unknown origin) at 1 uM by selectscreen kinase profiling assay in presence of ATP
[23] = target: CDK2/Cyclin A2 (Homo sapiens) (UniProt P24941+P20248); assay: Inhibition of CDK2/cyclin A (unknown origin) at 1 uM by selectscreen kinase profiling assay in presence of ATP; format: protein-complex assay
[24] = target: Cyclin-dependent kinase 5/CDK5 activator 1 (Homo sapiens) (UniProt Q00535+Q15078); assay: Inhibition of CDK5/p25 (unknown origin) at 1 uM by selectscreen kinase profiling assay in presence of ATP; format: protein-complex assay
[25] = target: T1, Glycogen synthase kinase-3 alpha; assay: Inhibition of GSK3alpha (unknown origin) at 1 uM by selectscreen kinase profiling assay in presence of ATP
Target sequence in this assay (P49840 2-483 limits assumed): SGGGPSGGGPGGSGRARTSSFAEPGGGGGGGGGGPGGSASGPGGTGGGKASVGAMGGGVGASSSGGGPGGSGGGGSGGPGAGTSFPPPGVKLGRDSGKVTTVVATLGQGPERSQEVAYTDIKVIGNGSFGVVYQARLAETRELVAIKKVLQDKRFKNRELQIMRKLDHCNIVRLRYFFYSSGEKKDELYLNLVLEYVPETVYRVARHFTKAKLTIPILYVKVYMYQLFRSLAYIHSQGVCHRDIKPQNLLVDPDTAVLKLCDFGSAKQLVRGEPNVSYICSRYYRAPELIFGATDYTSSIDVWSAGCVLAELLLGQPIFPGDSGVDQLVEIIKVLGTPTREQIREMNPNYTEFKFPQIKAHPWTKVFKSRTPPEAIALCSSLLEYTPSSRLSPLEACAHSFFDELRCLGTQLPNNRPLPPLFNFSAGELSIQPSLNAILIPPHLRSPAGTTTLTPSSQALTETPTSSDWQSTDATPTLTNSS

[26] = target: Serine/threonine-protein kinase PAK 6 (Homo sapiens) (UniProt Q9NQU5); assay: Inhibition of PAK6 (unknown origin) at 1 uM by selectscreen kinase profiling assay in presence of ATP
[27] = target: Mitogen-activated protein kinase 3 (Homo sapiens) (UniProt P27361); assay: Inhibition of ERK1 (unknown origin) at 1 uM by selectscreen kinase profiling assay in presence of ATP
[28] = target: Serine/threonine-protein kinase MRCK alpha (Homo sapiens) (UniProt Q5VT25); assay: Inhibition of MRCKalpha (unknown origin) at 1 uM by selectscreen kinase profiling assay in presence of ATP
[29] = Antiproliferative activity against human U118MG cells assessed as inhibition of cell growth after 144 hrs by WST1 assay; format: functional; settings: U-118-MG
[30] = Induction of apoptosis in human ANGM-CSS cells assessed as late apoptotic cells at 1 uM after 7 days by annexin V-FITC/7-AAD dual staining based cell analysis (reference value: 3.39%); format: functional
[31] = target: CDK7/Cyclin H/MNAT1 (Homo sapiens) (UniProt P51946+P50613+P51948); assay: Inhibition of CDK7/cyclin H/MNAT1 (unknown origin) at 1 uM by selectscreen kinase profiling assay in presence of ATP; format: protein-complex assay

Inhibitor of nuclear factor kappa-B kinase subunit alpha (Homo sapiens), sequence (O15111 whole entry): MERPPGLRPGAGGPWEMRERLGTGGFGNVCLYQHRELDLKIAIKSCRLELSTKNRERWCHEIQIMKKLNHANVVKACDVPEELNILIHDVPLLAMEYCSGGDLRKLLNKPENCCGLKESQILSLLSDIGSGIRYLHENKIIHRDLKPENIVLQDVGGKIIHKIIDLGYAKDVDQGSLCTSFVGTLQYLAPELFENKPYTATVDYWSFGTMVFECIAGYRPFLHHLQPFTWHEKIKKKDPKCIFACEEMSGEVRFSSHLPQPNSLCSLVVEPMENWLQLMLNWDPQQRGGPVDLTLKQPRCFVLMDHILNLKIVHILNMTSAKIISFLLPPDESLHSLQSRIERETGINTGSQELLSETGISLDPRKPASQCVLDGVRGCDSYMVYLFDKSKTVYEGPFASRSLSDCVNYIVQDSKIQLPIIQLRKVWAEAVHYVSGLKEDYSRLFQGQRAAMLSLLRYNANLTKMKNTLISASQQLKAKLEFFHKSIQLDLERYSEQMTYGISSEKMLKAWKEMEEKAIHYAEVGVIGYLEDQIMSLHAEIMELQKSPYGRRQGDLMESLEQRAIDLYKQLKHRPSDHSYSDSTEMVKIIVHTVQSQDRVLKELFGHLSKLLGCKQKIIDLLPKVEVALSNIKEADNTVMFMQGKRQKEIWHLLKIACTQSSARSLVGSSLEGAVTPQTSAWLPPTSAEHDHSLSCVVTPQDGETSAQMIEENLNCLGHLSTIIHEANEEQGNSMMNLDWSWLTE
Dual specificity mitogen-activated protein kinase kinase 2 (Homo sapiens), sequence (P36507 whole entry): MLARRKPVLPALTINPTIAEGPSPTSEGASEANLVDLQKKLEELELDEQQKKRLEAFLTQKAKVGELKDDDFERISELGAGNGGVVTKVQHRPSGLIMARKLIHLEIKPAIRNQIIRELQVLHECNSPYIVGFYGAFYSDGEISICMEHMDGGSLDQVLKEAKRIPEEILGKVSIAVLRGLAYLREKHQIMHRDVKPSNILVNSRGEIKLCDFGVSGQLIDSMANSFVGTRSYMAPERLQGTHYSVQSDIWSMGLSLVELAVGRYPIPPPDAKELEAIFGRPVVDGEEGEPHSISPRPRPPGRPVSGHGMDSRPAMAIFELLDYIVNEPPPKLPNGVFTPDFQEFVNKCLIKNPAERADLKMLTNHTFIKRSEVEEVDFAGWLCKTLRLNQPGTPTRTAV
Ribosomal protein S6 kinase beta-1 (Homo sapiens), sequence (P23443 whole entry, looked up): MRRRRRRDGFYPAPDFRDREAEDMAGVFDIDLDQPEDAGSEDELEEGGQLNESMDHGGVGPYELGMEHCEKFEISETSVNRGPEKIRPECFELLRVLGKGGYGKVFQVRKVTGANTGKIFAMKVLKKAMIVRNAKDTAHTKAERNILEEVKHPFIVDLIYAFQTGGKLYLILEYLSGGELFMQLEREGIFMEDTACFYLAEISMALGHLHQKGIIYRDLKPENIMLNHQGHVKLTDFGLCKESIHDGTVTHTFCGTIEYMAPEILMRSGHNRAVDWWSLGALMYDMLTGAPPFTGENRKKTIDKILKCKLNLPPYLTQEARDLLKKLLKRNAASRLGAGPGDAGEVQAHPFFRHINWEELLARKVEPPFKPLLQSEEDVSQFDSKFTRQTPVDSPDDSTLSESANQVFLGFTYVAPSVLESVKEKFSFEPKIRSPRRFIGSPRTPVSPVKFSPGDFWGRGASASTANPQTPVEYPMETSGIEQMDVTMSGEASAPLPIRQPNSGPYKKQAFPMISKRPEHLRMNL
Cyclin-dependent kinase 5/CDK5 activator 1 (Homo sapiens), sequence (Q00535 whole entry): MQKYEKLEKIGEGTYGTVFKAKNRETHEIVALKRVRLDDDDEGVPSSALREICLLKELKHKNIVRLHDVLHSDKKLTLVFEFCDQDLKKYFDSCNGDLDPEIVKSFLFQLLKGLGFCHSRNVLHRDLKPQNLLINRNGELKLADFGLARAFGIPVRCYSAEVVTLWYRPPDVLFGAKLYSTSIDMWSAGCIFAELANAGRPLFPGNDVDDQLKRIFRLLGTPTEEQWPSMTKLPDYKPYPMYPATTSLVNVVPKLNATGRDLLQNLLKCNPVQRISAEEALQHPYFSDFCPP
Cyclin-dependent kinase 5/CDK5 activator 1 (Homo sapiens), sequence (Q15078 99-307 partner limits assumed): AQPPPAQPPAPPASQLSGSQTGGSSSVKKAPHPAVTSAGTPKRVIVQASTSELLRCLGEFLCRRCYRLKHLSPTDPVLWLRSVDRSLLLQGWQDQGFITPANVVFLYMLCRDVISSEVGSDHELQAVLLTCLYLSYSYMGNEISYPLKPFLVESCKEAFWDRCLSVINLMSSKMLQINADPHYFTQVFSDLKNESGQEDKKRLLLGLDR
Tyrosine-protein kinase ITK/TSK (Homo sapiens), sequence (Q08881 whole entry): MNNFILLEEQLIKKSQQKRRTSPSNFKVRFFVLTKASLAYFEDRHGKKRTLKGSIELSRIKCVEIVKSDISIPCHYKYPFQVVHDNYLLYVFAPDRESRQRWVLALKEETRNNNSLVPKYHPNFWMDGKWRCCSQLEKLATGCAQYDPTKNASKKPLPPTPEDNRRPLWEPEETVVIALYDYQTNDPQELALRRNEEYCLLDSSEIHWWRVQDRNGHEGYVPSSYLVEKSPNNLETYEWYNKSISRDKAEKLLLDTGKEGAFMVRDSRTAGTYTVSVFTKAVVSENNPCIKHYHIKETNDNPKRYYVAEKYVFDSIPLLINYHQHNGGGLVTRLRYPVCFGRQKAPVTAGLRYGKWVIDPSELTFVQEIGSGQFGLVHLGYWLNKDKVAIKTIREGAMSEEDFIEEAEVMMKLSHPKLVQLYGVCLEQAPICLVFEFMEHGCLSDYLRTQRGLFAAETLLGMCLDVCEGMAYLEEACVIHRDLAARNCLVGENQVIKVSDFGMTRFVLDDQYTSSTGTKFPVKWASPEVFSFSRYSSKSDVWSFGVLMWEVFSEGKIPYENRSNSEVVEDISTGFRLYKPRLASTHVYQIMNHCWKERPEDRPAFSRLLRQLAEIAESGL
Serine/threonine-protein kinase PAK 6 (Homo sapiens), sequence (Q9NQU5 whole entry, looked up): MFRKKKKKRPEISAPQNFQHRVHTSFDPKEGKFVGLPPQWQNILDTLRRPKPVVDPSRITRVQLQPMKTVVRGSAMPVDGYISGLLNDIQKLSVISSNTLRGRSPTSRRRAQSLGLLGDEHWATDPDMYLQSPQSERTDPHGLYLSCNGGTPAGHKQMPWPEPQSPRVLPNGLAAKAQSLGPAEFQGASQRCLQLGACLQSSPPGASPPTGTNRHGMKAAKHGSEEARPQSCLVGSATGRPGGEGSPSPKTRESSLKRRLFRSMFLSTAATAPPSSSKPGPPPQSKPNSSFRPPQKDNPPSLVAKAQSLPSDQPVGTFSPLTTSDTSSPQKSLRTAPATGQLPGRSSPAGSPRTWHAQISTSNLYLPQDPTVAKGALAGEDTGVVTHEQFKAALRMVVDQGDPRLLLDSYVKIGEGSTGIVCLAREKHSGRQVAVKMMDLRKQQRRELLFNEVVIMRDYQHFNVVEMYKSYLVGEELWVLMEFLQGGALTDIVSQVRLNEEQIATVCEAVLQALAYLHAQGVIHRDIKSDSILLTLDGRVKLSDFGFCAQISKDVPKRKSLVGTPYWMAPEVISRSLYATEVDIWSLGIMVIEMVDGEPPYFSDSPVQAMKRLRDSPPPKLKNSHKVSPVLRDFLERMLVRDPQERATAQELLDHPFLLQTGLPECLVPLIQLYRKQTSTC
Tyrosine-protein kinase Lck (Homo sapiens), sequence (P06239 2-509 limits assumed): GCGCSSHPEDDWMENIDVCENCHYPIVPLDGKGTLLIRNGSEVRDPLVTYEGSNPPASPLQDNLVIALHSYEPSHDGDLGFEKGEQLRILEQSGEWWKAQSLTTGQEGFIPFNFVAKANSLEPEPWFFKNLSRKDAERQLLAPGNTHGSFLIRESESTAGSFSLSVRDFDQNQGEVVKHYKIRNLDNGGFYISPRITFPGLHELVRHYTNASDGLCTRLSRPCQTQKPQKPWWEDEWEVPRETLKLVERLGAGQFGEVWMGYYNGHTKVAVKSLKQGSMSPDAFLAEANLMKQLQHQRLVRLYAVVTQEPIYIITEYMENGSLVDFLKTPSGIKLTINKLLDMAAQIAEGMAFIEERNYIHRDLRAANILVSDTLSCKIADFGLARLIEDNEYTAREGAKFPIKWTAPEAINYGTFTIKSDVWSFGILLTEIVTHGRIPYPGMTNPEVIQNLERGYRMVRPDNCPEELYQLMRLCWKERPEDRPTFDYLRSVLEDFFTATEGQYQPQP

Q: For `COc1cc2c(cc1OC)CN(CC(=O)Nc1ccc3c(c1)/C(=C/c1cnc[nH]1)C(=O)N3)CC2`, which Activity (ANGM-CSS [1]) is on record?
A: Active

Q: And the inhibition [2]?
A: 8%

Q: And the IC50 [3]?
A: 884 nM

Q: What about the inhibition [4] of the same compound?
A: 11%

Q: And the GI50 [5]?
A: 12.9 µM

Q: What about the inhibition [6] of the same compound?
A: 1%

Q: And the Activity (ANGM-CSS [7])?
A: Active

Q: What about the Activity [8] of the same compound?
A: 1.74%

Q: What about the inhibition [9] of the same compound?
A: -4%

Q: And the inhibition [10]?
A: 9%

Q: And the inhibition [11]?
A: -2%

Q: What about the IC50 [12] of the same compound?
A: 272 nM

Q: What about the IC50 [13] of the same compound?
A: 274 nM

Q: And the inhibition [14]?
A: 26%

Q: And the inhibition [15]?
A: 37%

Q: And the inhibition [16]?
A: 26%

Q: And the inhibition [17]?
A: 55%

Q: And the inhibition [18]?
A: 0%

Q: And the Activity (ANGM-CSS [19])?
A: Active

Q: What about the inhibition [20] of the same compound?
A: 28%

Q: And the inhibition [21]?
A: 26%

Q: What about the inhibition [22] of the same compound?
A: 18%

Q: What about the inhibition [23] of the same compound?
A: 30%

Q: What about the inhibition [24] of the same compound?
A: 45%

Q: And the inhibition [25]?
A: 59%

Q: And the inhibition [26]?
A: 2%

Q: What about the inhibition [27] of the same compound?
A: 37%

Q: And the inhibition [28]?
A: -8%

Q: And the GI50 [29]?
A: 16.1 µM

Q: And the Activity [30]?
A: 11.87%

Q: What about the inhibition [31] of the same compound?
A: -8%
